The numbers were not newly measured in US20250064731A1, “A LIQUID PHARMACEUTICAL FORMULATION OF CLONIDINE HYDROCHLORIDE” (NOVUMGEN LIMITED, priority 2022, published 2025), which cites them from elsewhere.

For this data set the following is noted: after oral administration.

Regarding `Clc1cccc(Cl)c1N=C1NCCN1` [clonidine, N-(2,6-dichlorophenyl)-4,5-dihydro-1H-imidazol-2-amine], the “absorption from the gastrointestinal tract” value is reported as “almost completely absorbed” and the liver metabolism entry was “rapid liver metabolism”.
